According to ChEMBL document CHEMBL1201862, “PubChem BioAssay data set” (2004):
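Cells were grown in 96-well plates and exposed to each compound for 48 hours at five concentrations; endpoints were interpolated linearly between bracketing concentrations, or set to the highest concentration if not reached. Abbreviation: GI50, concentration required for 50% inhibition of growth.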 The source made the active and inactive calls. Rule as the data show it: active = GI50 up to about 1.1 µM and inactive = higher.

Tests used:
Assay in all cases: growth of human tumour cells (NCI), 48 h
786-0 = system: 786-0
A549 = system: A549
ACHN = system: ACHN
CAKI-1 = system: CAKI-1
CCRF-CEM = system: CCRF-CEM
COLO 205 = system: COLO 205
DLD-1 = system: DLD-1
DMS-114 = system: DMS-114
DMS-273 = system: DMS-273
EKVX = system: EKVX
HCC 2998 = system: HCC 2998
HCT-116 = system: HCT-116
HCT-15 = system: HCT-15
HOP-62 = system: HOP-62
HOP-92 = system: HOP-92
HT-29 = system: HT-29
IGROV-1 = system: IGROV-1
K562 = system: K562
KM-20L2 = system: KM-20L2
KM12 = system: KM12
LOX IMVI = system: LOX IMVI
LXFL 529 = system: LXFL 529
M14 = system: M14
M19-MEL = system: M19-MEL
MOLT-4 = system: MOLT-4
Malme-3M = system: Malme-3M
NCI-H226 = system: NCI-H226
NCI-H23 = system: NCI-H23
NCI-H460 = system: NCI-H460
NCI-H522 = system: NCI-H522
OVCAR-3 = system: OVCAR-3
OVCAR-4 = system: OVCAR-4
OVCAR-5 = system: OVCAR-5
OVCAR-8 = system: OVCAR-8
RPMI-8226 = system: RPMI-8226
RXF 631 = system: RXF 631
SF-268 = system: SF-268
SF-295 = system: SF-295
SF-539 = system: SF-539
SK-MEL-28 = system: SK-MEL-28
SK-MEL-2 = system: SK-MEL-2
SK-MEL-5 = system: SK-MEL-5
SK-OV-3 = system: SK-OV-3
SN12C = system: SN12C
SNB-19 = system: SNB-19
SNB-75 = system: SNB-75
SNB-78 = system: SNB-78
SR = system: SR
SW-620 = system: SW-620
TK-10 = system: TK-10
U-251 = system: U-251
UACC-62 = system: UACC-62
UO-31 = system: UO-31
XF498 = system: XF498
A498 = system: A498
HL-60 = system: HL-60
HOP-18 = system: HOP-18
UACC-257 = system: UACC-257
RXF 393 = system: RXF 393

O=C1c2ccccc2C(=O)c2nc3ccc(Cl)cc3cc21
GI50 (786-0): > 100 µM (inactive)
GI50 (A549): > 100 µM (inactive)
GI50 (ACHN): > 100 µM (inactive)
GI50 (CAKI-1): > 100 µM (inactive)
GI50 (CCRF-CEM): > 100 µM (inactive)
GI50 (COLO 205): > 100 µM (inactive)
GI50 (DLD-1): > 100 µM (inactive)
GI50 (DMS-114): > 100 µM (inactive)
GI50 (DMS-273): > 100 µM (inactive)
GI50 (EKVX): > 100 µM (inactive)
GI50 (HCC 2998): > 100 µM (inactive)
GI50 (HCT-116): > 100 µM (inactive)
GI50 (HCT-15): > 100 µM
GI50 (HOP-62): > 100 µM (inactive)
GI50 (HOP-92): > 100 µM (inactive)
GI50 (HT-29): > 100 µM (inactive)
GI50 (IGROV-1): > 100 µM (inactive)
GI50 (K562): > 100 µM (inactive)
GI50 (KM-20L2): > 100 µM (inactive)
GI50 (KM12): > 100 µM (inactive)
GI50 (LOX IMVI): > 100 µM (inactive)
GI50 (LXFL 529): > 100 µM (inactive)
GI50 (M14): > 100 µM (inactive)
GI50 (M19-MEL): > 100 µM (inactive)
GI50 (MOLT-4): > 100 µM (inactive)
GI50 (Malme-3M): > 100 µM (inactive)
GI50 (NCI-H226): > 100 µM (inactive)
GI50 (NCI-H23): > 100 µM (inactive)
GI50 (NCI-H460): > 100 µM (inactive)
GI50 (NCI-H522): > 100 µM (inactive)
GI50 (OVCAR-3): > 100 µM (inactive)
GI50 (OVCAR-4): > 100 µM (inactive)
GI50 (OVCAR-5): > 100 µM (inactive)
GI50 (OVCAR-8): > 100 µM (inactive)
GI50 (RPMI-8226): > 100 µM (inactive)
GI50 (RXF 631): > 100 µM (inactive)
GI50 (SF-268): > 100 µM (inactive)
GI50 (SF-295): 52.5 µM (inactive)
GI50 (SF-539): > 100 µM (inactive)
GI50 (SK-MEL-28): > 100 µM (inactive)
GI50 (SK-MEL-2): > 100 µM (inactive)
GI50 (SK-MEL-5): > 100 µM (inactive)
GI50 (SK-OV-3): > 100 µM (inactive)
GI50 (SN12C): > 100 µM (inactive)
GI50 (SNB-19): > 100 µM (inactive)
GI50 (SNB-75): > 100 µM (inactive)
GI50 (SNB-78): > 100 µM (inactive)
GI50 (SR): > 100 µM (inactive)
GI50 (SW-620): > 100 µM (inactive)
GI50 (TK-10): > 100 µM (inactive)
GI50 (U-251): > 100 µM (inactive)
GI50 (UACC-62): > 100 µM (inactive)
GI50 (UO-31): > 100 µM (inactive)
GI50 (XF498): > 100 µM (inactive)

N/N=C(\Cc1ccccc1)NN=C(N)N
GI50 (786-0): > 100 µM (inactive)
GI50 (A498): > 100 µM (inactive)
GI50 (A549): > 100 µM (inactive)
GI50 (ACHN): 53.7 µM (inactive)
GI50 (CAKI-1): > 100 µM (inactive)
GI50 (CCRF-CEM): 26.5 µM (inactive)
GI50 (COLO 205): > 100 µM (inactive)
GI50 (DLD-1): > 100 µM (inactive)
GI50 (EKVX): > 100 µM (inactive)
GI50 (HCC 2998): > 100 µM (inactive)
GI50 (HCT-116): > 100 µM (inactive)
GI50 (HCT-15): 74.8 µM
GI50 (HL-60): > 100 µM (inactive)
GI50 (HOP-18): > 100 µM (inactive)
GI50 (HOP-92): > 100 µM (inactive)
GI50 (HT-29): > 100 µM (inactive)
GI50 (IGROV-1): > 100 µM (inactive)
GI50 (K562): > 100 µM (inactive)
GI50 (KM12): > 100 µM (inactive)
GI50 (LOX IMVI): > 100 µM (inactive)
GI50 (LXFL 529): > 100 µM (inactive)
GI50 (M14): > 100 µM (inactive)
GI50 (M19-MEL): > 100 µM (inactive)
GI50 (MOLT-4): 47.1 µM (inactive)
GI50 (Malme-3M): > 100 µM (inactive)
GI50 (NCI-H226): > 100 µM (inactive)
GI50 (NCI-H23): > 100 µM (inactive)
GI50 (NCI-H460): > 100 µM (inactive)
GI50 (NCI-H522): 32.1 µM (inactive)
GI50 (OVCAR-4): > 100 µM (inactive)
GI50 (OVCAR-5): > 100 µM (inactive)
GI50 (OVCAR-8): > 100 µM (inactive)
GI50 (RPMI-8226): > 100 µM (inactive)
GI50 (RXF 631): > 100 µM (inactive)
GI50 (SF-268): > 100 µM (inactive)
GI50 (SF-295): > 100 µM (inactive)
GI50 (SF-539): > 100 µM (inactive)
GI50 (SK-MEL-28): > 100 µM (inactive)
GI50 (SK-MEL-2): > 100 µM (inactive)
GI50 (SK-MEL-5): > 100 µM (inactive)
GI50 (SK-OV-3): > 100 µM (inactive)
GI50 (SN12C): > 100 µM (inactive)
GI50 (SNB-75): > 100 µM (inactive)
GI50 (SNB-78): > 100 µM (inactive)
GI50 (SR): > 100 µM (inactive)
GI50 (SW-620): > 100 µM (inactive)
GI50 (TK-10): > 100 µM (inactive)
GI50 (U-251): > 100 µM (inactive)
GI50 (UACC-257): > 100 µM (inactive)
GI50 (UACC-62): > 100 µM (inactive)
GI50 (UO-31): > 100 µM (inactive)
GI50 (XF498): > 100 µM (inactive)

ClC(/N=N/c1ccccc1)=N/Nc1ccccc1
GI50 (786-0): > 100 µM (inactive)
GI50 (A498): > 100 µM (inactive)
GI50 (A549): > 100 µM (inactive)
GI50 (ACHN): 34.8 µM (inactive)
GI50 (CAKI-1): 33.6 µM (inactive)
GI50 (CCRF-CEM): > 100 µM (inactive)
GI50 (COLO 205): > 100 µM (inactive)
GI50 (DMS-273): 26.6 µM (inactive)
GI50 (EKVX): 96.8 µM (inactive)
GI50 (HCC 2998): 41.8 µM (inactive)
GI50 (HCT-116): > 100 µM (inactive)
GI50 (HL-60): > 100 µM (inactive)
GI50 (HOP-18): 20.8 µM (inactive)
GI50 (HOP-62): > 100 µM (inactive)
GI50 (HOP-92): > 100 µM (inactive)
GI50 (HT-29): > 100 µM (inactive)
GI50 (IGROV-1): > 100 µM (inactive)
GI50 (K562): 38.3 µM (inactive)
GI50 (KM-20L2): 51.1 µM (inactive)
GI50 (KM12): 60.7 µM (inactive)
GI50 (LOX IMVI): 58.5 µM (inactive)
GI50 (LXFL 529): 28.5 µM (inactive)
GI50 (M19-MEL): > 100 µM (inactive)
GI50 (MOLT-4): > 100 µM (inactive)
GI50 (Malme-3M): > 100 µM (inactive)
GI50 (NCI-H226): > 100 µM (inactive)
GI50 (NCI-H23): > 100 µM (inactive)
GI50 (NCI-H460): > 100 µM (inactive)
GI50 (NCI-H522): 61.9 µM (inactive)
GI50 (OVCAR-4): > 100 µM (inactive)
GI50 (OVCAR-5): > 100 µM (inactive)
GI50 (OVCAR-8): > 100 µM (inactive)
GI50 (RXF 393): > 100 µM (inactive)
GI50 (RXF 631): > 100 µM (inactive)
GI50 (SF-268): 39.2 µM (inactive)
GI50 (SF-295): 53.8 µM (inactive)
GI50 (SF-539): > 100 µM (inactive)
GI50 (SK-MEL-28): > 100 µM (inactive)
GI50 (SK-MEL-2): > 100 µM (inactive)
GI50 (SK-OV-3): > 100 µM (inactive)
GI50 (SN12C): > 100 µM (inactive)
GI50 (SNB-19): > 100 µM (inactive)
GI50 (SNB-78): > 100 µM (inactive)
GI50 (SR): > 100 µM (inactive)
GI50 (SW-620): 31.8 µM (inactive)
GI50 (TK-10): 21.3 µM (inactive)
GI50 (U-251): > 100 µM (inactive)
GI50 (UACC-257): > 100 µM (inactive)
GI50 (XF498): 40.4 µM (inactive)
